Measurements from patent publication US11629171B2, “Beta-hairpin peptidomimetics” (POLYPHOR AG, priority 2017, dated 2023).
Values after ≈ are worked out from the molar mass of the structure shown. Where a SMILES comes first, the peptide text is derived from it. Bridges are numbered along the chain shown (N, C = ends). Roman numbers before positions name the chains, in order. [ ]: non-standard residue; d: D form. Tle = CC(C)(C)[C@H](N)C(=O)O; dDab = NCC[C@@H](N)C(=O)O; Dab = NCC[C@H](N)C(=O)O; Nva = CCC[C@H](N)C(=O)O; Abu = CC[C@H](N)C(=O)O; Dap = NC[C@H](N)C(=O)O

How the values were obtained:
Assay type in all cases: cell-based
[1] = test system: Acinetobacter baumannii 872842; details: 872842
Procedure, shortened: (§1)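 Cation-adjusted MH-II broth, 0.002% polysorbate 80, inoculum near 10^6 CFU/mL. MIC read visually after 18-20 h, 35° C; units μg/mL.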

[2] = test system: Acinetobacter baumannii DSM 30008; details: DSM 30008
Procedure, shortened: as §1

[3] = test system: Enterobacter cloacae 848840; details: 848840
Procedure, shortened: as §1

Escherichia coli 926415 = details: 926415
Procedure, shortened: as §1

[4] = test system: Escherichia coli ATCC 25922; details: ATCC 25922
Procedure, shortened: as §1

[5] = test system: Klebsiella pneumoniae 968733; details: 968733
Procedure, shortened: as §1

[6] = test system: Klebsiella pneumoniae SSI #3010; details: SSI #3010
Procedure, shortened: as §1

[7] = test system: Pseudomonas aeruginosa ATCC 27853; details: ATCC 27853
Procedure, shortened: as §1

[8] = test system: human red blood cells (hRBC); experiment: Hemolysis; details: red cells of human, 1 h, 200
Procedure, shortened: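 Read-out is supernatant absorbance at 540 nm, normalised to full lysis by 2% Triton X-100 and zero lysis by PBS with 10% water. Peptides (200 μg/mL) were exposed to 20% v/v washed human erythrocytes at 37° C for 1 h under shaking.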

Row | Structure (SMILES) | MIC [1] | MIC [2] | MIC [3] | MIC (Escherichia coli 926415) | MIC [4] | MIC [5] | MIC [6] | MIC [7] | Hemolysis at 200 μg/mL [8]
1 | CC(=O)N[C@H](C(=O)N[C@H]1CSSC[C@@H](C(=O)N[C@@H](CO)C(N)=O)NC(=O)[C@H](C(C)(C)C)NC(=O)[C@H](CO)NC(=O)[C@H](Cc2c[nH]c3ccccc23)NC(=O)[C@H](CCN)NC(=O)[C@@H](CCN)NC(=O)[C@H](CCC(=O)N[C@@H](CCN)C(=O)N[C@H](C(=O)N[C@@H](CN)C(=O)N[C@H]2CCNC(=O)[C@H]([C@@H](C)O)NC(=O)[C@H](CCN)NC(=O)[C@H](CCN)NC(=O)[C@H](CC(C)C)NC(=O)[C@@H](CC(C)C)NC(=O)[C@H](CCN)NC2=O)[C@@H](C)O)NC(=O)[C@H]([C@@H](C)O)NC(=O)[C@H](Cc2ccc(O)cc2)NC1=O)C(C)C [Ex. 252] (I: Ac-VCYTE[dDab][Dab]WS[Tle]CS-NH2 / II: [Dab]T[Dap][Dab][Dab][dL]L[Dab][Dab]T; disulfide I:2-I:11; amide I:5-II:N; lactam II:4-II:C) | 0.0625 µg/mL (≈ 0.0258 µM) | 0.0625 µg/mL (≈ 0.0258 µM) | 0.125 µg/mL (≈ 0.0515 µM) | 0.125 µg/mL (≈ 0.0515 µM) | 0.0625 µg/mL (≈ 0.0258 µM) | 0.125 µg/mL (≈ 0.0515 µM) | 0.03125 µg/mL (≈ 0.0129 µM) | 0.0625 µg/mL (≈ 0.0258 µM) | 2%
2 | CC[C@H](C)[C@@H]1NC(=O)[C@H](CO)NC(=O)[C@H](Cc2c[nH]c3ccccc23)NC(=O)[C@H](CCN)NC(=O)[C@@H](CCN)NC(=O)[C@H](CCC(=O)N[C@@H](CCN)C(=O)N[C@H](C(=O)N[C@@H](CN)C(=O)N[C@H]2CCNC(=O)[C@H]([C@@H](C)O)NC(=O)[C@H](CCN)NC(=O)[C@H](CCN)NC(=O)[C@H](CC(C)C)NC(=O)[C@@H](CC(C)C)NC(=O)[C@H](CCN)NC2=O)[C@@H](C)O)NC(=O)[C@H](CO)NC(=O)[C@H](Cc2ccc(O)cc2)NC(=O)[C@@H](NC(=O)[C@@H](NC(C)=O)C(C)C)CSSC[C@@H](C(=O)N[C@@H](CO)C(N)=O)NC1=O [Ex. 253] (I: Ac-VCYSE[dDab][Dab]WSICS-NH2 / II: [Dab]T[Dap][Dab][Dab][dL]L[Dab][Dab]T; disulfide I:2-I:11; amide I:5-II:N; lactam II:4-II:C) | 0.03125 µg/mL (≈ 0.013 µM) | 0.03125 µg/mL (≈ 0.013 µM) | 0.125 µg/mL (≈ 0.0518 µM) | 0.0625 µg/mL (≈ 0.0259 µM) | 0.03125 µg/mL (≈ 0.013 µM) | 0.0625 µg/mL (≈ 0.0259 µM) | 0.0625 µg/mL (≈ 0.0259 µM) | 0.0625 µg/mL (≈ 0.0259 µM) | 2%
3 | CC[C@@H]1NC(=O)[C@@H](CC(C)C)NC(=O)[C@H](CCN)NC(=O)[C@@H](NC(=O)[C@H](CN)NC(=O)[C@@H](NC(=O)[C@H](CCN)NC(=O)CC[C@@H]2NC(=O)[C@H]([C@@H](C)O)NC(=O)[C@H](Cc3ccc(O)cc3)NC(=O)[C@@H](NC(=O)[C@@H](NC(C)=O)C(C)C)CSSC[C@@H](C(=O)N[C@@H](CO)C(N)=O)NC(=O)[C@H](C(C)(C)C)NC(=O)[C@H](CO)NC(=O)[C@H](Cc3c[nH]c4ccccc34)NC(=O)[C@H](CCN)NC(=O)[C@@H](CCN)NC2=O)[C@@H](C)O)CCNC(=O)[C@H]([C@@H](C)O)NC(=O)[C@H](CCN)NC(=O)[C@H](CCN)NC1=O [Ex. 255] (I: Ac-VCYTE[dDab][Dab]WS[Tle]CS-NH2 / II: [Dab]T[Dap][Dab][Dab][dL][Abu][Dab][Dab]T; disulfide I:2-I:11; amide I:5-II:N; lactam II:4-II:C) | 0.125 µg/mL (≈ 0.0521 µM) | 0.03125 µg/mL (≈ 0.013 µM) | 0.0625 µg/mL (≈ 0.0261 µM) | 0.0625 µg/mL (≈ 0.0261 µM) | 0.0625 µg/mL (≈ 0.0261 µM) | 0.25 µg/mL (≈ 0.104 µM) | 0.03125 µg/mL (≈ 0.013 µM) | 0.0625 µg/mL (≈ 0.0261 µM) | 1%
4 | CC[C@@H]1NC(=O)[C@@H](CC(C)C)NC(=O)[C@H](CCN)NC(=O)[C@@H](NC(=O)[C@H](CN)NC(=O)[C@@H](NC(=O)[C@H](CCN)NC(=O)CC[C@@H]2NC(=O)[C@H](CO)NC(=O)[C@H](Cc3ccc(O)cc3)NC(=O)[C@@H](NC(=O)[C@@H](NC(C)=O)C(C)C)CSSC[C@@H](C(=O)N[C@H](C(N)=O)[C@@H](C)O)NC(=O)[C@H](C(C)(C)C)NC(=O)[C@H](CO)NC(=O)[C@H](Cc3c[nH]c4ccccc34)NC(=O)[C@H](CCN)NC(=O)[C@@H](CCN)NC2=O)[C@@H](C)O)CCNC(=O)[C@H]([C@@H](C)O)NC(=O)[C@H](CCN)NC(=O)[C@H](CCN)NC1=O [Ex. 256] (I: Ac-VCYSE[dDab][Dab]WS[Tle]CT-NH2 / II: [Dab]T[Dap][Dab][Dab][dL][Abu][Dab][Dab]T; disulfide I:2-I:11; amide I:5-II:N; lactam II:4-II:C) | 0.03125 µg/mL (≈ 0.013 µM) | 0.03125 µg/mL (≈ 0.013 µM) | 0.0625 µg/mL (≈ 0.0261 µM) | 0.0625 µg/mL (≈ 0.0261 µM) | 0.03125 µg/mL (≈ 0.013 µM) | 0.0625 µg/mL (≈ 0.0261 µM) | 0.03125 µg/mL (≈ 0.013 µM) | 0.0625 µg/mL (≈ 0.0261 µM) | 1%
5 | CC(=O)N[C@H](C(=O)N[C@H]1CSSC[C@@H](C(=O)N[C@@H](CO)C(N)=O)NC(=O)[C@H](C(C)(C)C)NC(=O)[C@H](CO)NC(=O)[C@H](Cc2c[nH]c3ccccc23)NC(=O)[C@H](CCN)NC(=O)[C@@H](CCN)NC(=O)[C@H](CCC(=O)N[C@@H](CCN)C(=O)N[C@H](C(=O)N[C@@H](CN)C(=O)N[C@H]2CCNC(=O)[C@H]([C@@H](C)O)NC(=O)[C@H](CCN)NC(=O)[C@H](CCN)NC(=O)[C@H]([C@@H](C)O)NC(=O)[C@@H](CC(C)C)NC(=O)[C@H](CCN)NC2=O)[C@@H](C)O)NC(=O)[C@H]([C@@H](C)O)NC(=O)[C@H](Cc2ccc(O)cc2)NC1=O)C(C)C [Ex. 262] (I: Ac-VCYTE[dDab][Dab]WS[Tle]CS-NH2 / II: [Dab]T[Dap][Dab][Dab][dL]T[Dab][Dab]T; disulfide I:2-I:11; amide I:5-II:N; lactam II:4-II:C) | 0.0625 µg/mL (≈ 0.0259 µM) | 0.0625 µg/mL (≈ 0.0259 µM) | 0.0625 µg/mL (≈ 0.0259 µM) | 0.25 µg/mL (≈ 0.104 µM) | 0.03125 µg/mL (≈ 0.0129 µM) | 0.25 µg/mL (≈ 0.104 µM) | 0.03125 µg/mL (≈ 0.0129 µM) | 0.125 µg/mL (≈ 0.0518 µM) | 1%
6 | CC(=O)N[C@H](C(=O)N[C@H]1CSSC[C@@H](C(=O)N[C@H](C(N)=O)[C@@H](C)O)NC(=O)[C@H](C(C)(C)C)NC(=O)[C@H](CO)NC(=O)[C@H](Cc2c[nH]c3ccccc23)NC(=O)[C@H](CCN)NC(=O)[C@@H](CCN)NC(=O)[C@H](CCC(=O)N[C@@H](CCN)C(=O)N[C@H](C(=O)N[C@@H](CN)C(=O)N[C@H]2CCNC(=O)[C@H]([C@@H](C)O)NC(=O)[C@H](CCN)NC(=O)[C@H](CCN)NC(=O)[C@H]([C@@H](C)O)NC(=O)[C@@H](CC(C)C)NC(=O)[C@H](CCN)NC2=O)[C@@H](C)O)NC(=O)[C@H]([C@@H](C)O)NC(=O)[C@H](Cc2ccc(O)cc2)NC1=O)C(C)C [Ex. 263] (I: Ac-VCYTE[dDab][Dab]WS[Tle]CT-NH2 / II: [Dab]T[Dap][Dab][Dab][dL]T[Dab][Dab]T; disulfide I:2-I:11; amide I:5-II:N; lactam II:4-II:C) | 0.0625 µg/mL (≈ 0.0257 µM) | 0.03125 µg/mL (≈ 0.0129 µM) | 0.125 µg/mL (≈ 0.0515 µM) | 0.125 µg/mL (≈ 0.0515 µM) | 0.03125 µg/mL (≈ 0.0129 µM) | 0.25 µg/mL (≈ 0.103 µM) | 0.03125 µg/mL (≈ 0.0129 µM) | 0.125 µg/mL (≈ 0.0515 µM) | 1%
7 | CCC[C@@H]1NC(=O)[C@H](CO)NC(=O)[C@H](Cc2c[nH]c3ccccc23)NC(=O)[C@H](CCN)NC(=O)[C@@H](CCN)NC(=O)[C@H](CCC(=O)N[C@@H](CCN)C(=O)N[C@H](C(=O)N[C@@H](CN)C(=O)N[C@H]2CCNC(=O)[C@H]([C@@H](C)O)NC(=O)[C@H](CCN)NC(=O)[C@H](CCN)NC(=O)[C@H](CC(C)C)NC(=O)[C@@H](CC(C)C)NC(=O)[C@H](CCN)NC2=O)[C@@H](C)O)NC(=O)[C@H](CO)NC(=O)[C@H](Cc2ccc(O)cc2)NC(=O)[C@@H](NC(=O)[C@@H](NC(C)=O)C(C)C)CSSC[C@@H](C(=O)N[C@@H](CO)C(N)=O)NC1=O [Ex. 264] (I: Ac-VCYSE[dDab][Dab]WS[Nva]CS-NH2 / II: [Dab]T[Dap][Dab][Dab][dL]L[Dab][Dab]T; disulfide I:2-I:11; amide I:5-II:N; lactam II:4-II:C) | 0.0625 µg/mL (≈ 0.0261 µM) | 0.0625 µg/mL (≈ 0.0261 µM) | 0.5 µg/mL (≈ 0.208 µM) | 0.125 µg/mL (≈ 0.0521 µM) | 0.03125 µg/mL (≈ 0.013 µM) | 0.125 µg/mL (≈ 0.0521 µM) | 0.125 µg/mL (≈ 0.0521 µM) | 0.25 µg/mL (≈ 0.104 µM) | <1%
